ChEMBL document CHEMBL3351681, “Dual-stage triterpenoids from an African medicinal plant targeting the malaria parasite” (Bioorg Med Chem, 2014)
Calls of active or inactive are those of the source. The calls are words filed in the database; no cut-off is given here.

Tests used:
Plasmodium berghei [1] = experiment: Antiplasmodial activity against GFP-expressing liver stage Plasmodium berghei sporozoites infected in human Huh7 cells preincubated for 1 hr before infection at 1 uM measured after 48 hrs post infection by firefly luciferase reporter gene assay; type: functional; details: Huh-7
Plasmodium berghei [2] = experiment: Antiplasmodial activity against GFP-expressing liver stage Plasmodium berghei sporozoites infected in human Huh7 cells preincubated for 1 hr before infection at 5 uM measured after 48 hrs post infection by firefly luciferase reporter gene assay; type: functional; details: Huh-7
Plasmodium berghei [3] = experiment: Antiplasmodial activity against GFP-expressing liver stage Plasmodium berghei sporozoites infected in human Huh7 cells preincubated for 1 hr before infection at 15 uM measured after 48 hrs post infection by firefly luciferase reporter gene assay; type: functional; details: Huh-7
[4] = Cytotoxicity against human HuH7 cells up to 15 uM after 48 hrs by Alamar Blue assay; type: cell-based; details: huh-7, 48 h
Plasmodium berghei [5] = experiment: Antiplasmodial activity against GFP-expressing liver stage Plasmodium berghei sporozoites infected in human Huh7 cells preincubated for 1 hr before infection measured after 48 hrs post infection by firefly luciferase reporter gene assay; type: functional, organism-based; details: Huh-7

Structure (SMILES) | inhibition (Plasmodium berghei [1]) | inhibition (Plasmodium berghei [2]) | inhibition (Plasmodium berghei [3]) | Activity [4] | inhibition at 1 µM (Plasmodium berghei [1]) [%] | inhibition at 5 µM (Plasmodium berghei [2]) [%] | inhibition at 15 µM (Plasmodium berghei [3]) [%] | inhibition (Plasmodium berghei [5])
CC(=O)O[C@H]1C=C2[C@@H](CC[C@H](OC(C)=O)C2(C)C)[C@]2(C)CC[C@]3(C)[C@@H]([C@H](C)C[C@H](C=C(C)C)OC(C)=O)CC[C@@]3(C)[C@H]12 [TRIACETYLBALSAMINOL F] | Active | Active | Active | Non-toxic | – | – | – | –
CCCC(=O)O[C@@H](C=C(C)C)C[C@@H](C)[C@H]1CC[C@@]2(C)[C@@H]3[C@@H](OC)C=C4[C@@H](CC[C@H](O)C4(C)C)[C@]3(C)CC[C@]12C [KARAVOATE E] | – | – | – | Toxic | 39 | 89 | 99 | –
CO[C@H]1C=C2[C@@H](CC[C@H](OC(C)=O)C2(C)C)[C@]2(C)CC[C@]3(C)[C@@H]([C@H](C)C[C@H](C=C(C)C)OC(C)=O)CC[C@@]3(C)[C@H]12 [KARAVOATE B] | – | – | – | Non-toxic | 60 | 96 | 99 | Dose-dependent effect
CO[C@H]1C=C2[C@@H](CC[C@H](OC(=O)c3ccc([N+](=O)[O-])cc3)C2(C)C)[C@]2(C)CC[C@]3(C)[C@@H]([C@H](C)C[C@H](C=C(C)C)OC(=O)c4ccc([N+](=O)[O-])cc4)CC[C@@]3(C)[C@H]12 [KARAVOATE J] | inactive | inactive | inactive | Non-toxic | – | – | – | –
CCC(=O)O[C@H]1CC[C@@H]2C(=C[C@H](OC)[C@@H]3[C@@]2(C)CC[C@]2(C)[C@@H]([C@H](C)C[C@H](C=C(C)C)OC(=O)CC)CC[C@@]32C)C1(C)C [KARAVOATE D] | – | – | – | Non-toxic | 34 | 82 | 93 | –
CCC(=O)O[C@@H](C=C(C)C)C[C@@H](C)[C@H]1CC[C@@]2(C)[C@@H]3[C@@H](OC)C=C4[C@@H](CC[C@H](O)C4(C)C)[C@]3(C)CC[C@]12C [KARAVOATE C] | – | – | – | Non-toxic | 13 | 60 | – | –
CO[C@H]1C=C2[C@@H](CC[C@H](O)[C@]2(C)CO)[C@]2(C)CC[C@]3(C)[C@@H]([C@H](C)C[C@@H](O)C=C(C)C)CC[C@@]3(C)[C@H]12 [BALSAMINOL B] | – | – | – | Non-toxic | – | 47 | – | –
CO[C@H]1C=C2[C@@H](CC[C@H](O)C2(C)C)[C@]2(C)CC[C@]3(C)[C@@H]([C@H](C)C[C@H](C=C(C)C)OC(=O)c4ccc([N+](=O)[O-])cc4)CC[C@@]3(C)[C@H]12 [KARAVOATE I] | – | – | – | Non-toxic | 34 | 88 | 97 | –
CO[C@H]1C=C2[C@@H](CC[C@H](OC(=O)c3ccccc3)C2(C)C)[C@]2(C)CC[C@]3(C)[C@@H]([C@H](C)C[C@H](C=C(C)C)OC(=O)c4ccccc4)CC[C@@]3(C)[C@H]12 [KARAVOATE H] | inactive | inactive | inactive | Non-toxic | – | – | – | –
CC(C)=C[C@H](O)C[C@@H](C)[C@H]1CC[C@@]2(C)[C@@H]3[C@@H](O)C=C4[C@@H](CC[C@H](O)C4(C)C)[C@]3(C)CC[C@]12C [BALSAMINOL F] | Active | – | Active | Non-toxic | – | 32 | – | –
COc1ccc(C(=O)O[C@H]2CC[C@@H]3C(=C[C@H](OC)[C@@H]4[C@@]3(C)CC[C@]3(C)[C@@H]([C@H](C)C[C@H](C=C(C)C)OC(=O)c5ccc(OC)cc5)CC[C@@]43C)C2(C)C)cc1 [KARAVOATE N] | inactive | inactive | inactive | Non-toxic | – | – | – | –
CCCC(=O)O[C@H]1CC[C@@H]2C(=C[C@H](OC)[C@@H]3[C@@]2(C)CC[C@]2(C)[C@@H]([C@H](C)C[C@H](C=C(C)C)OC(=O)CCC)CC[C@@]32C)C1(C)C [KARAVOATE F] | – | – | – | Non-toxic | 11 | 64 | 82 | –
CO[C@H]1C=C2[C@@H](CC[C@H](O)C2(C)C)[C@]2(C)CC[C@]3(C)[C@@H]([C@H](C)C[C@H](C=C(C)C)OC(C)=O)CC[C@@]3(C)[C@H]12 [KARAVOATE A] | – | – | – | Toxic | 28 | 93 | – | –
COC(C)(C)/C=C/C[C@@H](C)[C@H]1CC[C@@]2(C)[C@@H]3[C@@H](O[C@H]4O[C@@H](CO)[C@H](O)[C@H](O)[C@@H]4O)C=C4[C@@H](CC[C@H](O)C4(C)C)[C@]3(C)CC[C@]12C [BALSAMINOSIDE A] | – | – | – | Toxic | – | – | – | –
CO[C@H]1C=C2[C@@H](CC[C@H](O)C2(C)C)[C@]2(C)CC[C@]3(C)[C@@H]([C@H](C)C[C@@H](O)C=C(C)C)CC[C@@]3(C)[C@H]12 [KARAVELAGENIN C] | – | – | – | Non-toxic | 27 | 73 | 99 | –
COc1ccc(C(=O)O[C@@H](C=C(C)C)C[C@@H](C)[C@H]2CC[C@@]3(C)[C@@H]4[C@@H](OC)C=C5[C@@H](CC[C@H](O)C5(C)C)[C@]4(C)CC[C@]23C)cc1 [KARAVOATE M] | – | – | – | Non-toxic | 14 | 87 | 99 | –
